Experimental data as given in US20070027138A1 (priority 2000, published 2007).
Where a name gives a salt, the structure may show the parent alone.

Target: acetylcholinesterase (AChE), human recombinant (Homo sapiens, UniProt P22303)
Assay: biochemical
Type: biochemical
Conditions: not given

acetylcholinesterase (AChE), human recombinant, sequence (P22303 32-614): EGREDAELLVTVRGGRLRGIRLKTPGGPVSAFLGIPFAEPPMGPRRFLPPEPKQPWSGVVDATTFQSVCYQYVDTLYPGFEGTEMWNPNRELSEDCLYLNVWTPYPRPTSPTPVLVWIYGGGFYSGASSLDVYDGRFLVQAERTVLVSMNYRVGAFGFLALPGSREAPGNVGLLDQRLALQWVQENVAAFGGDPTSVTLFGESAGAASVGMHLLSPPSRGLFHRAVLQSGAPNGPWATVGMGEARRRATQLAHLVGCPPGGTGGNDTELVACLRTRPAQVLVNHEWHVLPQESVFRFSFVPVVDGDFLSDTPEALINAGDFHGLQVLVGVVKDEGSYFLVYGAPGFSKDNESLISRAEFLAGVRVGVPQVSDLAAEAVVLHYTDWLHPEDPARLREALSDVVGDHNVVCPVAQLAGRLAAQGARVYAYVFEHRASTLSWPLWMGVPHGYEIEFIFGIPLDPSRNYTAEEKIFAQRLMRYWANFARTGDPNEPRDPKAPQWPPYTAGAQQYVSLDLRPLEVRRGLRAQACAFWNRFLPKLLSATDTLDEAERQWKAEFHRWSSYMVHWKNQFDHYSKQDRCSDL

Structure (SMILES)	IC50 [µM]
COc1ccc2c3c1OC1CC(O)C=CC31CCN(CCCCN1C(=O)c3ccccc3S1(=O)=O)C2 (centres unmarked) [SPH-1369]	0.022

Same assay, conditions: human recombinant enzyme (hr); pre-incubation of the enzyme with inhibitor (mE); read-out: IC50 (AChE, mE, hr)

Structure (SMILES)	IC50 [µM]
COc1ccc2c3c1OC1CC(O)C=CC31CC[N+](C)(CC1CC1)C2 (single isomer, unassigned; (-)) [SPH-1146, (−) Cyclopropylmethylgalanthaminium bromide]	1.2
CCOC(=O)CCN1CCC23C=C[C@H](O)CC2Oc2c(OC)cc(Br)c(c23)C1 (stereo partly drawn) [SPH-1162, 3-((6R)-1-Bromo-6-hydroxy-3-methoxy-5,6,9,10-tetrahydro-4aH-[1]benzofuro[3a,3,2-ef][2]benzazepin-11(12H)-yl)propanoic acid ethyl ester]	200
COc1cc(N(C)C)c2c3c1O[C@H]1CC(O)C=CC31CCN(C)C2 (some centres unmarked) [SPH-1163]	200
C=CCN1CCC23C=CC(O)CC2Oc2c(OC)cc(C)c(c23)C1 (centres unmarked) [SPH-1199]	200
COc1cc(C)c2c3c1OC1CC(O)C=CC31CCN(C)C2 (centres unmarked) [SPH-1200]	200
COc1cc(C)c2c3c1OC1C[C@@H](O)C=CC31CCN(CCN1CCOCC1)C2 (some centres unmarked) [SPH-1202]	200
COc1cc(C)c2c3c1OC1CC(O)C=CC31CCN(C)C2 (centres unmarked) [SPH-1204]	200
COc1cc(Br)c2c3c1OC1C[C@@H](O)C=CC31CCN(C(=O)NC(C)C)C2 (stereo partly drawn) [SPH-1208, (6R)-1-Bromo-6-hydroxy-N^11-isopropyl-3-methoxy-5,6,9,10-tetrahydro-4aH-[1]benzofuro[3a,3,2-ef][2]benzazepine-11(12H)-carboxylic acid amide]	200
COc1ccc2c3c1OC1C[C@@H](O)C=CC31CCN(c1nc(Oc3ccccc3)nc(Oc3ccccc3)n1)C2 (stereo partly drawn) [SPH-1228, (6R)-11-(4,6-Diphenoxy-1,3,5-triazine-2-yl)-3-methoxy-5,6,9,10,11,12-hexahydro-4aH-[1]benzofuro[3a,3,2-ef][2]benzazepin-6-ol]	200
COc1ccc2c3c1OC1C[C@@H](O)C=CC31CCN(c1nc(OCCN)nc(OCCN)n1)C2 (stereo partly drawn) [SPH-1233, (6R)-11-(4,6-Bis-(2aminoethoxy)-1,3,5-triazine-2-yl)-3-methoxy-5,6,9,10,11,12-hexahydro-4aH-[1]benzofuro[3a,3,2-ef][2]benzazepin-6-ol]	200
COc1ccc2c3c1OC1CC(O)C=CC31CN(C)CC2 (centres unmarked) [SPH-1263, (4aα,8aα)-4a,5,9,10,11-Hexahydro-3-methoxy-10-methyl-6H-benzofuro[3a,3,2-ef]-[3]benzazepin-6-ol]	200
COc1ccc2c3c1OC1C[C@@H](O)C=CC31CCN(C(=O)Nc1ccccc1C(F)(F)F)C2 (some centres unmarked) [SPH-1266]	30
COc1ccc2c3c1OC1CC(O)C=CC31CCN(CCC(=O)O)C2 (centres unmarked) [SPH-1276]	42
COC(=O)C(=CN1CCC23C=CC(O)CC2Oc2c(OC)ccc(c23)C1)C(=O)OC (centres unmarked) [SPH-1278]	100
COc1cc(C)c2c3c1OC1CC(O)C=CC31CCN(CCCN1CCCCC1)C2 (centres unmarked) [SPH-1298]	200
COc1ccc2c3c1OC1CC(O)C=CC31CCCC2N (centres unmarked) [SPH-1309]	200
COc1ccc2c3c1OC1CC(O)C=CC31CCN(CCN)C2 (centres unmarked) [SPH-1311]	1.3
C=CCCC(=O)N1CCC23C=CC(O)CC2Oc2c(OC)ccc(c23)C1 (centres unmarked) [SPH-1326]	8.4
COC(=O)C1=CON2CCC34C=CC(O)CC3Oc3c(OC)ccc(c34)C12 (centres unmarked) [SPH-1332]	200

Same assay, conditions: last section of the table, own sub-head (r307); read-out: IC50 AChE

Structure (SMILES)	IC50 [µM]
C=C(C)C[N+]1(C)CC[C@@]23C=C[C@H](O)C[C@@H]2Oc2c(OC)ccc(c23)C1 (some centres unmarked) [SPH-1193]	1.5

Same assay, conditions: read-out: IC50 (AChE, mE, hr); human recombinant enzyme (hr); pre-incubation of the enzyme with inhibitor (mE)

Structure (SMILES)	IC50 [µM]
COc1cc(Br)c2c3c1OC1C[C@@H](O)C=CC31CCN(CCC#N)C2 (stereo in doubt) [SPH-1210, 3-((6R)-1-Bromo-6-hydroxy-3-methoxy-5,6,9,10-tetrahydro-4aH-[I]benzofuro[3a,3,2-ef][2]benzazepine-11(12H)-yl)propanenitrile]	200

System: not given
Assay: not given
Conditions: not given

Structure (SMILES)	melting point [°C]
COc1ccc2c3c1O[C@H]1C[C@@H](O)C=C[C@@]31CCN(C)C2=O	251 to 255
COc1ccc2c3c1O[C@H]1C[C@@H](O)C=C[C@@]31CCN1OC(OC(C)=O)C[C@@H]21 (some centres unmarked)	132 to 134
COc1ccc2c3c1O[C@H]1C[C@@H](O)C=C[C@@]31CCN1OC=C(C#N)[C@H]21	137 to 139
COc1ccc2c3c1O[C@H]1C[C@@H](O)C=C[C@@]31CCN(CCCCCN1C(=O)c3cccc4cccc(c34)C1=O)C2 (as salt: fumarate)	129 to 134
